Test system: Nude (RNU) rats
Assay: FK506 immunosuppression of nude rats transplanted with human hepatocytes, body size
Assay type: in vivo, rat
Details: 2 mg/kg/day FK506, four weeks after hepatocyte injection
Description: Forty nude rat pups (2 weeks old) were obtained from Charles River and acclimated for a week before the study began. The rats were assigned to + or −immunosuppressive groups, with controls in each group (see Table 3 below). Rats assigned to the +immunosuppressive group were treated with 2 mg/kg/day subcutaneous doses of FK506 (Tacrolimus) throughout the study, with the initial dosage being 20 μl of 5 mg/mL FK506 ([…]) per day, based upon an average initial animal weight of 50 g at the start of the study. The −immunosuppression rats were not treated with FK506, but were injected subcutaneously with the same volume of saline throughout the study. All of the rats were then given an intravenous injection (retroorbital) of uPA adenovirus (2.5×10^9 plaque forming units (PFU) per 50 g rat) 48-96 hours before hepatocyte injection.
Two weeks after study commencement, the dose of FK506 was increased to 30 μl of 5 mg/mL due to an increase in animal weight. Four weeks after study commencement, the dose of FK506 was again increased to 25 μl of 10 mg/mL to account for growth of the rats.
Four weeks after hepatocyte injection (˜5 weeks after study commencement), at least 50 μl of whole blood was collected from the rats and allowed to clot for 1 hour at room temperature. Serum was collected by centrifuging the whole blood at 1,500 rpm×15 minutes. […]

In the case of `C=CC[C@@H]1/C=C(\C)C[C@H](C)C[C@H](OC)[C@H]2O[C@@](O)(C(=O)C(=O)N3CCCC[C@H]3C(=O)O[C@H](/C(C)=C/[C@@H]3CC[C@@H](O)[C@H](OC)C3)[C@H](C)[C@@H](O)CC1=O)[C@H](C)C[C@@H]2OC` [FK506], the “body size on reweighing versus non-treated rats” value is reported as “significantly smaller than their non-treated counterparts”.
